Reference: US20240269139A1, “COMPOUNDS FOR TARGETED PROTEIN DEGRADATION OF KINASES” (DANA-FARBER CANCER INSTITUTE, INC., priority 2020, published 2024)
Read-outs that look alike come from different tables or passages of the source.

What was measured:
[1] = molecular target: protein kinases (human kinome) (Homo sapiens, UniProt P24941); assay type: cell-based
[2] = molecular target: protein kinases (human kinome) (Homo sapiens, UniProt P50613); assay type: cell-based; conditions: CDK7 P50613
[3] = molecular target: protein kinases (human kinome) (Homo sapiens, UniProt P53671); assay type: cell-based; conditions: for logFC LIMK2: LIMK2 (P53671), down; for logFC of LIMK2: LIMK2 P53671
[4] = molecular target: protein kinases (human kinome) (Homo sapiens, UniProt Q00535); assay type: cell-based; conditions: for logFC of CDK5: Accession Q00535
[5] = molecular target: protein kinases (human kinome) (Homo sapiens, UniProt Q07912); assay type: cell-based; conditions: for logFC TNK2 (Q07912-1): direction down; for logFC TNK2: TNK2 (Q07912-1)
[6] = molecular target: protein kinases (human kinome) (Homo sapiens, UniProt Q13233); assay type: cell-based
[7] = molecular target: protein kinases (human kinome) (Homo sapiens, UniProt Q16584); assay type: cell-based
[8] = molecular target: protein kinases (human kinome) (Homo sapiens, UniProt Q9HBH9); assay type: cell-based; conditions: for logFC MKNK2 (Q9HBH9-1): direction down; for logFC: MKNK2 (Q9HBH9-1)
[9] = molecular target: T1, extended human kinome (kinase-like proteins) (Homo sapiens, UniProt P54886); test: Whole cell quantitative proteomics: extended kinome hits; conditions: Accession P54886; experiment wp160; 1 hr
T1 sequence (P54886 1-795): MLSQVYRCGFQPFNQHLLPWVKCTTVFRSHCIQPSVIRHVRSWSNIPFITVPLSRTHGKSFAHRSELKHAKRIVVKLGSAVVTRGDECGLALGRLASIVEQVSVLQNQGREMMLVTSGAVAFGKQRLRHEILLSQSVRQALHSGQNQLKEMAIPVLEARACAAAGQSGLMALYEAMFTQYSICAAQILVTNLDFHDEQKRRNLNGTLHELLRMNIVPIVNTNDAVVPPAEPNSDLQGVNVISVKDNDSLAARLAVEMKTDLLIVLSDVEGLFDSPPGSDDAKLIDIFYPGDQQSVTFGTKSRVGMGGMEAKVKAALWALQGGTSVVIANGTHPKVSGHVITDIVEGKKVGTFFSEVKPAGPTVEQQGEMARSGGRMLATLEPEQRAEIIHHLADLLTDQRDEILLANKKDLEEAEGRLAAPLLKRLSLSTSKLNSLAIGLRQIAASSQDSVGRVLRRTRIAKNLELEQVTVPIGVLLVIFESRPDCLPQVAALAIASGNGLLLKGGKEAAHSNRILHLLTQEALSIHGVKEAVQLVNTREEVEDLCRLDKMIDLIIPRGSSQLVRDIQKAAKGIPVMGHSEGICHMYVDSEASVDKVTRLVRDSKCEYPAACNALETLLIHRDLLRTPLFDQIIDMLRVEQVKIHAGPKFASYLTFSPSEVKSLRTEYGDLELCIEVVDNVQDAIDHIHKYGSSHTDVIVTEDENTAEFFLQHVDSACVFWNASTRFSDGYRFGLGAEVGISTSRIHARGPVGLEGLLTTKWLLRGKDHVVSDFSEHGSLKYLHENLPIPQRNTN

[10] = molecular target: protein kinases (human kinome) (Homo sapiens, UniProt P45984); assay type: cell-based; conditions: MAPK9 P45984-1; experiment wp168
[11] = Experiment wp105, direction of change down
[12] = experiment wp016, 1 uM, direction of change down
[13] = experiment wp016, direction of change down
[14] = experiment wp103, direction of change down
[15] = experiment wp107, direction of change down
[16] = experiment wp133, 2 hr, direction of change down
[17] = experiment wp133, 4 hr, direction of change down
[18] = experiment wp160, 2 hr, direction of change down
[19] = experiment wp160, 4 hr, direction of change down
[20] = experiment wp172, direction of change down

Chain of protein kinases (human kinome) (Homo sapiens, UniProt Q16584) (Q16584 whole entry): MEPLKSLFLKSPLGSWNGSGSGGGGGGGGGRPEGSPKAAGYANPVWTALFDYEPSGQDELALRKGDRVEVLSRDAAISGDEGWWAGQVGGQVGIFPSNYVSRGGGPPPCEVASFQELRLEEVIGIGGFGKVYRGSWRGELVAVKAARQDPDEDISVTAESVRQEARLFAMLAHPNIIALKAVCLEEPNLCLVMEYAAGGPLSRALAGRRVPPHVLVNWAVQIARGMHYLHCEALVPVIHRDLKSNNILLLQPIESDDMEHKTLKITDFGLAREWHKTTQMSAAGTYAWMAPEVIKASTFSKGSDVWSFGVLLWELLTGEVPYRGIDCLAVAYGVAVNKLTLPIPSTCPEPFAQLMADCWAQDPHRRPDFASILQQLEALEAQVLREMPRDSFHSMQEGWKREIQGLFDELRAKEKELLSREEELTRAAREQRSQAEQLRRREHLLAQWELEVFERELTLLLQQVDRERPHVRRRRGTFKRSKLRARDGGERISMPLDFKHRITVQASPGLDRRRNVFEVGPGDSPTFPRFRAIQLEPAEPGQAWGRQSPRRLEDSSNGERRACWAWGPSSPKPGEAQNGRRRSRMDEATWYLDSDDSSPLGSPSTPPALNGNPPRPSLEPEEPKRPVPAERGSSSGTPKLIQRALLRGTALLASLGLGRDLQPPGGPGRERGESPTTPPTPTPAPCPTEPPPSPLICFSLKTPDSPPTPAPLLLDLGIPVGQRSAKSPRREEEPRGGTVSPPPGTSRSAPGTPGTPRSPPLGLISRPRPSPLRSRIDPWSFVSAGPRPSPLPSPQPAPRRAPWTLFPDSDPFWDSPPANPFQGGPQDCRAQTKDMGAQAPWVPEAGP
Chain of protein kinases (human kinome) (Homo sapiens, UniProt Q07912) (Q07912 whole entry): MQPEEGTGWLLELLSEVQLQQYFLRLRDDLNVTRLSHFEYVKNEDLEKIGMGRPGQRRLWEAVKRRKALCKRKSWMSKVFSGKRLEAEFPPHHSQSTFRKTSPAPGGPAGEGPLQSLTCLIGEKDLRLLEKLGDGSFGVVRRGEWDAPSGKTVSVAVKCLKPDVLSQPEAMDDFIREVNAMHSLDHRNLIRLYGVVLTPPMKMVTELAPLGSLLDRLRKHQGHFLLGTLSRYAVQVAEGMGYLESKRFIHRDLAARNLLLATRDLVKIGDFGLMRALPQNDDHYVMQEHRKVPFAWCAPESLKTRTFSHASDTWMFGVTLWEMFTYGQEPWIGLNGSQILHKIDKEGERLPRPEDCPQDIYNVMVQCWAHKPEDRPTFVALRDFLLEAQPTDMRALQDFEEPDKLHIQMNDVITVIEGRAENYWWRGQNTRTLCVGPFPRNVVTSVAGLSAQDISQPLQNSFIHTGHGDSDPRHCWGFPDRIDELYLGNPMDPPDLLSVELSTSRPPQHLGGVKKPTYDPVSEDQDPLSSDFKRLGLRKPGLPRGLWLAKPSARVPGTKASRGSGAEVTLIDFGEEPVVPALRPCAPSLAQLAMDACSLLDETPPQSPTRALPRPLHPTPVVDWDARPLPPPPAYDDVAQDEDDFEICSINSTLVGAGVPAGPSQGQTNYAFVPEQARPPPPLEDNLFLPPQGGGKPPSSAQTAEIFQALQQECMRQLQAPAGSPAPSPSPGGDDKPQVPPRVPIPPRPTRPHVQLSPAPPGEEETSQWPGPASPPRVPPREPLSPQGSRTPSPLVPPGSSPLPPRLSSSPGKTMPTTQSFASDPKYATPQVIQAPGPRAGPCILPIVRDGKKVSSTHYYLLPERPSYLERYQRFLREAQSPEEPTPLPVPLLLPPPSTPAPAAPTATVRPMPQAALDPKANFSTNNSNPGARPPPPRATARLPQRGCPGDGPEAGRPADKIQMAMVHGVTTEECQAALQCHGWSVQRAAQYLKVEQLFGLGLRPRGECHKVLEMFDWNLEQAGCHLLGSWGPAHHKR
Chain of protein kinases (human kinome) (Homo sapiens, UniProt Q00535) (Q00535 whole entry): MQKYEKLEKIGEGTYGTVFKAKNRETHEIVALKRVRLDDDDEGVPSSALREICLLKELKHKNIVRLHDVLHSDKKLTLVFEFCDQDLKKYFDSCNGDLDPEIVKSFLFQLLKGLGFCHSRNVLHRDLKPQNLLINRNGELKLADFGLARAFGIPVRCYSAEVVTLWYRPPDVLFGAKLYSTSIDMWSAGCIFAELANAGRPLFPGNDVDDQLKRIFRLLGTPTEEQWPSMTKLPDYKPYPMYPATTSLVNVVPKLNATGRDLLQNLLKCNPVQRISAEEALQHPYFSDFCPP
Chain of protein kinases (human kinome) (Homo sapiens, UniProt P50613) (P50613 whole entry): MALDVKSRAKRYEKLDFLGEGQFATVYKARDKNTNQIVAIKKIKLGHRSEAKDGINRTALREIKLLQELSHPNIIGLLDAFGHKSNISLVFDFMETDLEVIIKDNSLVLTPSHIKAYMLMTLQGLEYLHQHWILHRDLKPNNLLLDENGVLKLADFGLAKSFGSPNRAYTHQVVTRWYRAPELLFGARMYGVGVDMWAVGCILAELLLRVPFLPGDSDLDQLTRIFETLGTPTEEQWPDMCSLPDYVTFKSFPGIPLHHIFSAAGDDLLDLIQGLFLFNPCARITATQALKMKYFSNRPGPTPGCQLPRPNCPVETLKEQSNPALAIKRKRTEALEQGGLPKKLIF
Chain of protein kinases (human kinome) (Homo sapiens, UniProt P53671) (P53671 whole entry): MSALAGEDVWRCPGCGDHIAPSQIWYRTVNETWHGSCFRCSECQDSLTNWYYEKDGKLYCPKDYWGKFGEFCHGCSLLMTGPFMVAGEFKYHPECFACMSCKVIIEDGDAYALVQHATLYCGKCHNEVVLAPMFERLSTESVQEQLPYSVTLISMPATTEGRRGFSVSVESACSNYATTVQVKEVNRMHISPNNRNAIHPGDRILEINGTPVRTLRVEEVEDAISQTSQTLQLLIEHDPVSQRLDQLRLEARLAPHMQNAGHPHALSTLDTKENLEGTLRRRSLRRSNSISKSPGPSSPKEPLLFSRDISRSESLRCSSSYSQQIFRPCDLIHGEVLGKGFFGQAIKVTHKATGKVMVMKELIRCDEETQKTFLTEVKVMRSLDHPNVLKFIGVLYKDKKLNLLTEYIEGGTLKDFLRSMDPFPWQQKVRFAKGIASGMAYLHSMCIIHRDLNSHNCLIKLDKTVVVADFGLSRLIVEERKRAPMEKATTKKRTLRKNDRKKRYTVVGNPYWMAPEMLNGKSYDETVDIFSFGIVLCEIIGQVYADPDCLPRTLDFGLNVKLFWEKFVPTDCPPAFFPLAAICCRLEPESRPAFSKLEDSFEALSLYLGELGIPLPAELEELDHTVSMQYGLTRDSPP
Chain of protein kinases (human kinome) (Homo sapiens, UniProt Q13233) (Q13233 whole entry): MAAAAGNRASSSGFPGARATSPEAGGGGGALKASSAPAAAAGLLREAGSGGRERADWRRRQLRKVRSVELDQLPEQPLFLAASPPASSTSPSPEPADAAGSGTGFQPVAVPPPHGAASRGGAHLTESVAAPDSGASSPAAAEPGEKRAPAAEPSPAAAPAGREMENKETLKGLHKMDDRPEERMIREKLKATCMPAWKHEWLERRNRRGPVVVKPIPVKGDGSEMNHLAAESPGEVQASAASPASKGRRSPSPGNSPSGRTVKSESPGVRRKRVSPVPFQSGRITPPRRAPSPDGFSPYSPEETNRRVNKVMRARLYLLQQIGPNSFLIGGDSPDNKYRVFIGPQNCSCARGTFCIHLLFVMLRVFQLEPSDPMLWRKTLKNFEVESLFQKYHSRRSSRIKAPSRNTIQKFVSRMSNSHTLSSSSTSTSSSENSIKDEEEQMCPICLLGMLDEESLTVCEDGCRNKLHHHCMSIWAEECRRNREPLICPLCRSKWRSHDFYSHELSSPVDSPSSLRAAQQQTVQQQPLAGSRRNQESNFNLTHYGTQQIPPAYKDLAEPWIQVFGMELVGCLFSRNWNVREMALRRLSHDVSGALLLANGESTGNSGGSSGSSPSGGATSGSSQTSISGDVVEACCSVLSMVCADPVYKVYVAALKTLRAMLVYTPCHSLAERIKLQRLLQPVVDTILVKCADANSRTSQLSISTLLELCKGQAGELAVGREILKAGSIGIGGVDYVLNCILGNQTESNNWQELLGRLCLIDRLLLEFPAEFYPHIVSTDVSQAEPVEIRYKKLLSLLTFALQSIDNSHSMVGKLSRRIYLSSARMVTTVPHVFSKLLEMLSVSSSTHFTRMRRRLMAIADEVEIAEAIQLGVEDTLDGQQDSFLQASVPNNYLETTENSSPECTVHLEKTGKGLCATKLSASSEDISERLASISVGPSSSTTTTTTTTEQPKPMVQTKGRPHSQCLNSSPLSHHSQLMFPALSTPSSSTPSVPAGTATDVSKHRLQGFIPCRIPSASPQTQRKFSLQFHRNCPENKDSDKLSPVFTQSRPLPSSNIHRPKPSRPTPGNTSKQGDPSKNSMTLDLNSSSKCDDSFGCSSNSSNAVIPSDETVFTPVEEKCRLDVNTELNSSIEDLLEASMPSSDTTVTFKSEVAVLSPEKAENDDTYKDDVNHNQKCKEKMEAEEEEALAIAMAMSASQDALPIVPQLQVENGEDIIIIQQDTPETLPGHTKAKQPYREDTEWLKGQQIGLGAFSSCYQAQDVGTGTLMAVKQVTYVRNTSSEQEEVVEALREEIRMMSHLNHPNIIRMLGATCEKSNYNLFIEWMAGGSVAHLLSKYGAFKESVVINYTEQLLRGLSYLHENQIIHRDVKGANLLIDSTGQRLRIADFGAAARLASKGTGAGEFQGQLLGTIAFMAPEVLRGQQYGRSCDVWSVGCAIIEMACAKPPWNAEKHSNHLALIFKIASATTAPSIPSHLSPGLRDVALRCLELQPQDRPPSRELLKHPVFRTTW

Structure (SMILES): CC(C)S(=O)(=O)c1ccccc1Nc1nc(Nc2ccc(N3CCN(CCOCCNC(=O)CNc4cccc5c4C(=O)N(C4CCC(=O)NC4=O)C5=O)CC3)cc2)ncc1Cl (stereo not drawn) [SK.3.91]
- logFC CDK2 (P24941-1) ([1]; Experiment wp103): −0.4588
- logFC CDK2 (P24941-1) [1, 11]: −0.4593
- logFC CDK2 (P24941-1) ([1]; Experiment wp107): −0.7583
- logFC CDK2 (P24941-1) ([1]; Experiment wp160, 2 hr): −0.383
- logFC CDK2 (P24941-1) ([1]; Experiment wp172): −0.8996
- logFC CDK2 (P24941-1) ([1]; experiment wp016): −0.5115
- logFC CDK2 (P24941-1) ([1]; experiment wp016, 1 uM): −1.047
- logFC CDK2 (P24941-1) [1, 12]: −1.047
- logFC CDK2 (P24941-1) [1, 13]: −0.5115
- logFC CDK2 (P24941-1) [1, 14]: −0.4588
- logFC CDK2 (P24941-1) ([1]; experiment wp105): −0.4593
- logFC CDK2 (P24941-1) [1, 15]: −0.7583
- logFC CDK2 (P24941-1) ([1]; experiment wp133, 2 hr): −0.4306
- logFC CDK2 (P24941-1) [1, 16]: −0.4306
- logFC CDK2 (P24941-1) ([1]; experiment wp133, 4 hr): −0.6908
- logFC CDK2 (P24941-1) [1, 17]: −0.6908
- logFC CDK2 (P24941-1) [1, 18]: −0.383
- logFC CDK2 (P24941-1) ([1]; experiment wp160, 4 hr): −0.647
- logFC CDK2 (P24941-1) [1, 19]: −0.647
- logFC CDK2 (P24941-1) [1, 20]: −0.8996
- logFC CDK7 ([2]; experiment wp016): −0.5236
- logFC CDK7 ([2]; experiment wp105): −0.6307
- logFC CDK7 ([2]; experiment wp107): −0.4632
- logFC CDK7 ([2]; experiment wp114): −0.5255
- logFC CDK7 ([2]; experiment wp172): −1.186
- logFC LIMK2 ([3]; experiment wp016, 1 uM): −1.441
- logFC LIMK2 ([3]; experiment wp016): −1.061
- logFC LIMK2 ([3]; experiment wp103): −1.431
- logFC LIMK2 ([3]; experiment wp107): −1.878
- logFC LIMK2 ([3]; experiment wp114): −0.8414
- logFC LIMK2 ([3]; experiment wp133, 2 hr): −0.7575
- logFC LIMK2 ([3]; experiment wp133, 4 hr): −1.342
- logFC LIMK2 ([3]; experiment wp172): −0.8984
- logFC of LIMK2 ([3]; experiment wp016): −1.061
- logFC of LIMK2 ([3]; experiment wp016, 1 uM): −1.441
- logFC of LIMK2 ([3]; experiment wp103): −1.431
- logFC of LIMK2 ([3]; experiment wp107): −1.878
- logFC of LIMK2 ([3]; experiment wp114): −0.8414
- logFC of LIMK2 ([3]; experiment wp133, 2 hr): −0.7575
- logFC of LIMK2 ([3]; experiment wp133, 4 hr): −1.342
- logFC of LIMK2 ([3]; experiment wp172): −0.8984
- logFC of CDK5 ([4]; experiment wp016): −1.126
- logFC of CDK5 ([4]; experiment wp016, 1 uM): −1.429
- logFC of CDK5 ([4]; experiment wp103): −1.043
- logFC of CDK5 ([4]; experiment wp105): −0.931
- logFC CDK5 (Q00535) [4, 11]: −0.931
- logFC CDK5 (Q00535) ([4]; Experiment wp107): −1.014
- logFC CDK5 (Q00535) ([4]; Experiment wp114): −0.468
- logFC CDK5 (Q00535) ([4]; Experiment wp114, direction of change down): −0.468
- logFC CDK5 (Q00535) ([4]; Experiment wp160, 2 hr): −0.6265
- logFC CDK5 (Q00535) ([4]; Experiment wp172): −1.304
- logFC CDK5 (Q00535) [4, 12]: −1.429
- logFC CDK5 (Q00535) [4, 13]: −1.126
- logFC CDK5 (Q00535) [4, 14]: −1.043
- logFC CDK5 (Q00535) [4, 15]: −1.014
- logFC CDK5 (Q00535) ([4]; experiment wp133, 2 hr): −0.6608
- logFC CDK5 (Q00535) [4, 16]: −0.6608
- logFC CDK5 (Q00535) ([4]; experiment wp133, 4 hr): −1.242
- logFC CDK5 (Q00535) [4, 17]: −1.242
- logFC CDK5 (Q00535) ([4]; experiment wp160, 1 hr): −0.3257
- logFC CDK5 (Q00535) ([4]; experiment wp160, 1 hr, direction of change down): −0.3257
- logFC CDK5 (Q00535) [4, 18]: −0.6265
- logFC CDK5 (Q00535) ([4]; experiment wp160, 4 hr): −1.197
- logFC CDK5 (Q00535) [4, 19]: −1.197
- logFC CDK5 (Q00535) [4, 20]: −1.304
- logFC TNK2 (Q07912-1) ([5]; Experiment wp133, 2 hr): −1.053
- logFC TNK2 (Q07912-1) ([5]; Experiment wp133, 4 hr): −2.261
- logFC TNK2 ([5]; experiment wp133, 2 hr): −1.053
- logFC TNK2 ([5]; experiment wp133, 4 hr): −2.261
- logFC MAP3K1 ([6]; Accession Q13233, experiment wp105, direction down): −0.3258
- logFC MAP3K1 ([6]; MAP3K1 (Q13233), experiment wp105): −0.3258
- logFC MAP3K11 (Q16584) ([7]; experiment wp103): −0.7838
- logFC MAP3K11 (Q16584) ([7]; experiment wp107): −2.182
- logFC MAP3K11 (Q16584) ([7]; experiment wp114): −0.4774
- logFC MAP3K11 (Q16584) ([7]; experiment wp133, 1 hr): −0.3986
- logFC MAP3K11 (Q16584) ([7]; experiment wp133, 2 hr): −0.8441
- logFC MAP3K11 (Q16584) ([7]; experiment wp133, 4 hr): −1.487
- logFC MKNK2 (Q9HBH9-1) ([8]; Experiment wp133, 1 hr): −0.5168
- logFC MKNK2 (Q9HBH9-1) ([8]; Experiment wp133, 2 hr): −0.5303
- logFC MKNK2 (Q9HBH9-1) ([8]; Experiment wp133, 4 hr): −0.8537
- logFC ([8]; experiment wp133, 1 hr): −0.5168
- logFC ([8]; experiment wp133, 2 hr): −0.5303
- logFC ([8]; experiment wp133, 4 hr): −0.8537
- logFC ALDH18A1 [9]: −0.9684

Structure (SMILES): Cc1ccc(NC(=O)c2cccc(C(F)(F)F)c2)cc1N1Cc2cnc(Nc3ccc(N4CCN(CCCOc5cccc6c5C(=O)N(C5CCC(=O)NC5=O)C6=O)CC4)nc3)nc2N(C)C1=O (stereo not drawn) [DB0662]
- logFC [10]: −2.611
- logFC MAPK9 [10]: −2.611
- logFC TNK2 (Q07912-1) ([5]; Experiment wp168): −0.6943
- logFC TNK2 ([5]; experiment wp168): −0.6943
- logFC MAP3K1 ([6]; Accession Q13233, experiment wp168, direction down): −0.7087
- logFC MAP3K1 ([6]; MAP3K1 (Q13233), experiment wp168): −0.7087
- logFC MAP3K11 (Q16584) ([7]; experiment wp168): −0.7288
- logFC MKNK2 (Q9HBH9-1) ([8]; Experiment wp168): −0.4185
- logFC ([8]; experiment wp168): −0.4185
